From ChEMBL document CHEMBL3991601, “The target landscape of clinical kinase drugs” (Science, 2017) come the findings set out here.

The structures appear in SMILES notation. Active and inactive are the calls of the source. Cut-off read from the data, not from the text of the source, for most assays here: actives have a measured Kd and inactives only a lower limit. Some results are limits rather than exact numbers.

Assay [1] addresses Cyclin-dependent kinase 2 (Homo sapiens, UniProt P24941).
Assay [2] has as its target T1, Discoidin domain-containing receptor 2 (Homo sapiens, UniProt Q16832).
T1 sequence (Q16832 whole entry): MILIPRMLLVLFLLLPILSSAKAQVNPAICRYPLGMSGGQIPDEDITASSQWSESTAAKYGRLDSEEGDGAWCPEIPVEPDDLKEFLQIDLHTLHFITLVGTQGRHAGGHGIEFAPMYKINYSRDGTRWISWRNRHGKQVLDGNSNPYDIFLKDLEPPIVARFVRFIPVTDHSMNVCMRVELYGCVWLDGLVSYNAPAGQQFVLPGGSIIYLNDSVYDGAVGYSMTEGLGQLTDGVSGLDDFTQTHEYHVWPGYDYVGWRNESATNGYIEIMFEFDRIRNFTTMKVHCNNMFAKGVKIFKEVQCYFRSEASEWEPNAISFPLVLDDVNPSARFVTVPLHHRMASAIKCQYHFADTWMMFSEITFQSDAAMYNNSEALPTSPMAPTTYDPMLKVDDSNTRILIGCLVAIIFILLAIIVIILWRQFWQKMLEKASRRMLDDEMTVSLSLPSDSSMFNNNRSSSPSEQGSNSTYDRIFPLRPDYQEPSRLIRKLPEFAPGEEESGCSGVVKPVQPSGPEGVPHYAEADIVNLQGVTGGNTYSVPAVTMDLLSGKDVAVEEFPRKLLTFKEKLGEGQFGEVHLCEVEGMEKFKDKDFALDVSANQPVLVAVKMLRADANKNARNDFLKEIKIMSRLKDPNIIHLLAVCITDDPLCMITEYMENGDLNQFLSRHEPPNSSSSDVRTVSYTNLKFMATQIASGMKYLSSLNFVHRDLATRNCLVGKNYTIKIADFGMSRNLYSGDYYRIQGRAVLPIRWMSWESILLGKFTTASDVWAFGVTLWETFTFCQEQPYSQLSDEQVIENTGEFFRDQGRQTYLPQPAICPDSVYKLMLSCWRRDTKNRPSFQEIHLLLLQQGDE

Another assay addresses T2, Heme oxygenase 2 (Homo sapiens, UniProt P30519).
T2 sequence (P30519 whole entry): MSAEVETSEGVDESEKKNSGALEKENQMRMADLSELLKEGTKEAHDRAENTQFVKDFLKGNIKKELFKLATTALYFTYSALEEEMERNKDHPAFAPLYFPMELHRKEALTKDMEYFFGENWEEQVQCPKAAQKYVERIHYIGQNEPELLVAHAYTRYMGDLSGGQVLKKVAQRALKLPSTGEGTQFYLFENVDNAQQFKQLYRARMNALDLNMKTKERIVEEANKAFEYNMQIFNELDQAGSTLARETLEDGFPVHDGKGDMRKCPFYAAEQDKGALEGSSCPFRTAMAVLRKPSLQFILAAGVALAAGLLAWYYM

Assay [3] has as its target Tyrosine-protein kinase Lyn (Homo sapiens, UniProt P07948).
Assay [4] addresses T3, Serine/threonine-protein kinase Nek3 (Homo sapiens, UniProt P51956).
T3 sequence (P51956 whole entry): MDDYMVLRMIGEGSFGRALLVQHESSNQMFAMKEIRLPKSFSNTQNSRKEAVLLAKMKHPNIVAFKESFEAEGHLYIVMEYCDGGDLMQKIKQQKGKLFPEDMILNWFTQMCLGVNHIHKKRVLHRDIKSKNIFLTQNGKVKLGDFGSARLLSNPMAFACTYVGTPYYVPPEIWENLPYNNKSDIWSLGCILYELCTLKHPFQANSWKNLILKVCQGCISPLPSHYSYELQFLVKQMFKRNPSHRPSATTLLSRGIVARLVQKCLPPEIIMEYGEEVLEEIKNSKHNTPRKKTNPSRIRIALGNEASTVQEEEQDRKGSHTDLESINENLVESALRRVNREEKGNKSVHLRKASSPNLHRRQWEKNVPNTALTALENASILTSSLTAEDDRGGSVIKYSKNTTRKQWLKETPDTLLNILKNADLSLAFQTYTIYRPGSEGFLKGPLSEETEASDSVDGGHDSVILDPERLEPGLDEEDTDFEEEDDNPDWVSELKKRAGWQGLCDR

Assay [5] deals with T4, NUAK family SNF1-like kinase 2 (Homo sapiens, UniProt Q9H093).
T4 sequence (Q9H093 whole entry): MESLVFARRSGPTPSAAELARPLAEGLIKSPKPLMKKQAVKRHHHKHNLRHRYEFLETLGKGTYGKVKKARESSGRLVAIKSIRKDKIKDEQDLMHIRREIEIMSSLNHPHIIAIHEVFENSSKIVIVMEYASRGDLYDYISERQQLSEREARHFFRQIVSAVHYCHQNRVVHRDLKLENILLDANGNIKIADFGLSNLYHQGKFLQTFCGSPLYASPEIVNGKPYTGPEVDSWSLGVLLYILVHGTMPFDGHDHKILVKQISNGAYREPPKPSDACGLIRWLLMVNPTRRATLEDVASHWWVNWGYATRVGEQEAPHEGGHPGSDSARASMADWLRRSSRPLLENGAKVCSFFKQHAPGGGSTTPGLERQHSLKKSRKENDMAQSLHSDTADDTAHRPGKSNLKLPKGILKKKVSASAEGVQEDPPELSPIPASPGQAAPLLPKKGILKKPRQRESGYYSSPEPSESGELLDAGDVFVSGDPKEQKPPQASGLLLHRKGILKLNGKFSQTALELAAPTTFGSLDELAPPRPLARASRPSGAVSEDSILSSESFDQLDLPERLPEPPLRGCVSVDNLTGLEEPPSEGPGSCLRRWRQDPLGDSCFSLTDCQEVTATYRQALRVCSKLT

Another assay deals with Obg-like ATPase 1 (Homo sapiens, UniProt Q9NTK5).
Chain of Obg-like ATPase 1 (Q9NTK5 whole entry, looked up): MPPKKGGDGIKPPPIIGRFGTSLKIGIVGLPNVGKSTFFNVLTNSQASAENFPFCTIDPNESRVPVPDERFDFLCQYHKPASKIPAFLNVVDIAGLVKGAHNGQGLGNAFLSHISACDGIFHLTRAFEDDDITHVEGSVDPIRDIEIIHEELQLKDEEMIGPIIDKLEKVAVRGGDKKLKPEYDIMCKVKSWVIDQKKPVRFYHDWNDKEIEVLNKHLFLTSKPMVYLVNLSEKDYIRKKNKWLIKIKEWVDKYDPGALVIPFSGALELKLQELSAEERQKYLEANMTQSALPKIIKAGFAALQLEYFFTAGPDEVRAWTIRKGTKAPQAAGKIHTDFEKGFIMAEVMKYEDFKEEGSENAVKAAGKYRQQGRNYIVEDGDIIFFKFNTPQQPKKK
The target in assay [6] is Ribosomal protein S6 kinase alpha-4 (Homo sapiens, UniProt O75676).
Chain of Ribosomal protein S6 kinase alpha-4 (O75676 whole entry): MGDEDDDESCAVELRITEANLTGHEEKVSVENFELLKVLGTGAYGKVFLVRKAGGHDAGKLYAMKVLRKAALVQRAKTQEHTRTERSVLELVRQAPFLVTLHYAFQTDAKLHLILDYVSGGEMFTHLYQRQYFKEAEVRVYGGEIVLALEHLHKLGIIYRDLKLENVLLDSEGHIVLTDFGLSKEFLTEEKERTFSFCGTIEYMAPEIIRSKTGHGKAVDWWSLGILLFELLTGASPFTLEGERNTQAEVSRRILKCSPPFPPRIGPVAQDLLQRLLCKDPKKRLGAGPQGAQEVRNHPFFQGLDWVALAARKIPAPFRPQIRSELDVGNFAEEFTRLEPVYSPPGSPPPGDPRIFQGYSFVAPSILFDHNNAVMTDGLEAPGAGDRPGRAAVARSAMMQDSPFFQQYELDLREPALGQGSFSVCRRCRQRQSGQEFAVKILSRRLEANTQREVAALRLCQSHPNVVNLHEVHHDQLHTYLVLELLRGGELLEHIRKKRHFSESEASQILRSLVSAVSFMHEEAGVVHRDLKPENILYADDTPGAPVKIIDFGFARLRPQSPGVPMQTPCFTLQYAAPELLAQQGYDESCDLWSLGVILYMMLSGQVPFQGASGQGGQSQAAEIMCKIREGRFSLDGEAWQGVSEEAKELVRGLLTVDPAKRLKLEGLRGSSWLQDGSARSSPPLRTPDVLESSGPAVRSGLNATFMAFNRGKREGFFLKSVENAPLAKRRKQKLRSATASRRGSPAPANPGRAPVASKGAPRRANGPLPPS
Note: in the data inactive means no Kd found up to 30 µM.

Chain of Tyrosine-protein kinase Lyn (P07948 whole entry): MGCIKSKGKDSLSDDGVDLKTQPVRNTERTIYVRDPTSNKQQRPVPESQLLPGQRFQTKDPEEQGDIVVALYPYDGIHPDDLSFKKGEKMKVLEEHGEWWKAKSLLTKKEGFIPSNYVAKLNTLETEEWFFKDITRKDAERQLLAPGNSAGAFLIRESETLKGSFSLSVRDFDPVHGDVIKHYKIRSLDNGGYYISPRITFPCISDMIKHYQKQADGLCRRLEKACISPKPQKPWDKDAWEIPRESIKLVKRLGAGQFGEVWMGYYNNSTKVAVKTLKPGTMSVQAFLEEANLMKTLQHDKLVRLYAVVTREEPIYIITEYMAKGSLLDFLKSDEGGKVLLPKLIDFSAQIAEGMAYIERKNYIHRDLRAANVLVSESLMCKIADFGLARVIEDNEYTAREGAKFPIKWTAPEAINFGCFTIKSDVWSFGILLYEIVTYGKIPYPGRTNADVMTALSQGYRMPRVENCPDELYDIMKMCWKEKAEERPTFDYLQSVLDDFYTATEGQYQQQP

A word on the Kd: it is the constant that tells how readily two partners part at equilibrium. In the case of `COc1cc2nccc(Oc3ccc(NC(=O)C4(C(=O)Nc5ccc(F)cc5)CC4)cc3)c2cc1OC` [CABOZANTINIB], the Kd was > 30 µM (inactive) in assay [1]; 0.501 µM (active) in assay [2]; > 30 µM (inactive) on Heme oxygenase 2; 1.33 µM (active) in assay [3]; > 30 µM (inactive) in assay [4]; > 30 µM (inactive) in assay [5]. The Kd (on Obg-like ATPase 1; in assay [6]) was > 30 µM (inactive) in each case.
Consider `NC[C@@](O)(c1ccc(Cl)cc1)c1ccc(-c2cn[nH]c2)cc1` [AT-13148], for which the Kd (in assay [1]; in assay [2]; at Heme oxygenase 2; in assay [3]; in assay [4]; in assay [5]) was > 30 µM (inactive) each time. For the same molecule, the Kd (on Obg-like ATPase 1; in assay [6]) was > 30 µM (inactive) in each case.
